Counter-ions that a name gives are not always drawn.

The first experiment relates to NRG1-ERBB4 signaling. The experiment in a line: Nrg1-ERBB4-PIK3R1 split TEV co-culture compound screen of the NIH Clinical Collection. It is filed as cell-based, human.
Conditions: not given
Compound `O=P1(N(CCCl)CCCl)NCCCO1` (stereo not shown) [Cytoxan, reference compound] came in with a Z-SCORE of -0.97.

The same experiment, now with this note: NIH Clinical Collection NCC-003 raw data; compounds ranked by Z-score; 'flagged' given instead of a Z-score.
In the case of MEDROXYPROGESTERONE, the Z-SCORE is recorded as -2.38.
Still for that read-out and setting: as for `C=CC[C@@H]1/C=C(\C)C[C@H](C)C[C@H](OC)[C@H]2O[C@@](O)(C(=O)C(=O)N3CCCC[C@H]3C(=O)O[C@H](/C(C)=C/[C@@H]3CC[C@@H](O)[C@H](OC)C3)[C@H](C)[C@@H](O)CC1=O)[C@H](C)C[C@@H]2OC` [TACROLIMUS], the figure is -1.97.
On the same count and under the same terms, as for `C[C@]12CCC(=O)C=C1CC[C@@H]1[C@@H]2CC[C@@]2(C)[C@H]1CC[C@]2(O)C(=O)CO` [ReichsteinÂ’s substanceÂ S], the figure is -1.82; as for `CN(C)CCOc1ccc(/C(=C(/CCCl)c2ccccc2)c2ccccc2)cc1` [TOREMIFENE CITRATE], “flagged”.
The same measure, in the same setting: as for `O=C([O-])C[C@H](O)C[C@H](O)/C=C/c1c(C2CC2)nc2ccccc2c1-c1ccc(F)cc1.O=C([O-])C[C@H](O)C[C@H](O)/C=C/c1c(C2CC2)nc2ccccc2c1-c1ccc(F)cc1.[Ca+2]` [ITAVASTATIN Ca], the entry is “flagged”.

The experiment is the same for the next values; noted with them: compound screen of the NIH Clinical Collection, sheet raw data NCC-003; compounds ranked by Z-score.
Consider `c1ccc2c(c1)Nc1ccccc1S2` [PHENOTHIAZINE], for which the Z-SCORE was -0.03.
The compound `C=CC1=C(C(=O)O)N2C(=O)[C@@H](NC(=O)/C(=N\OCC(=O)O)c3csc(N)n3)[C@H]2SC1` [CEFIXIME TRIHYDRATE] registered a Z-SCORE of 1.63.
For the compound `O=c1c2ccccc2[se]n1-c1ccccc1` [EBSELEN], the Z-SCORE is -0.25.
In turn, `O=C1Nc2ccccc2/C1=C1/Nc2ccccc2C1=O` [Indirubin] yielded a Z-SCORE of 0.67.
Same read-out and setting: as for `CN(C)CCc1c[nH]c2ccc(Cn3cncn3)cc12` [RIZATRIPTAN BENZOATE], the figure is -0.76.
`CN1CCC(=C2c3ccccc3C=Cc3ccccc32)CC1` [Cyproheptadine hydrochloride] gave a Z-SCORE of 0.2.
Same read-out and setting: to `COc1cc(-c2ccc(=O)[nH]n2)ccc1OC(F)F` belongs 0.32; to `COc1c(N2C[C@@H]3CCCN[C@@H]3C2)c(F)cc2c(=O)c(C(=O)O)cn(C3CC3)c12` [MOXIFLOXACIN HCl], -0.35.
Still for that read-out and setting: as for `Clc1cccc(Cl)c1NC1=NCCN1`, the figure is 0.34; as for `O=c1[nH]c(=O)n(C2CCCO2)cc1F` (stereo not shown) [FTORAFUR], -0.09.
Still for that read-out and setting: as for `O=c1c(O[C@@H]2O[C@H](CO)[C@H](O)[C@H](O)[C@H]2O)c(-c2ccc(O)c(O)c2)oc2cc(O)cc(O)c12` [HYPEROSIDE], the figure is 0.68.
`C[C@]12Cc3c[nH]nc3C[C@@H]1CC[C@@H]1[C@@H]2CC[C@@]2(C)[C@H]1CC[C@]2(C)O` [Stanozolol] returned a Z-SCORE of 0.07.
As to `CCOc1cc(N)c(Cl)cc1C(=O)NCC1CN(Cc2ccc(F)cc2)CCO1` (stereo not shown) [MOSAPRIDE CITRATE], the Z-SCORE was 0.73.
Same read-out and setting: as for `CCCc1c(OCCCCc2nnn[nH]2)ccc(C(C)=O)c1O` [LY 171883], the figure is 2.04.
Still for that read-out and setting: to `CC[C@@H](C(N)=O)N1CCCC1=O` belongs -0.28; to `CCc1nn(CCCN2CCN(c3cccc(Cl)c3)CC2)c(=O)n1CCOc1ccccc1` [Nefazodone], -0.63.
As to `Cc1ccsc1C(=CCCN1CCC[C@@H](C(=O)O)C1)c1sccc1C` [TIAGABINE HCl], the Z-SCORE was -0.1.
Compound `N#Cc1ccc(C(c2ccc(C#N)cc2)n2cncn2)cc1` [LETROZOLE] yielded a Z-SCORE of -1.06.
`Nc1ccn([C@H]2CC[C@@H](CO)O2)c(=O)n1` [2',3'-DIDEOXYCYTIDINE] gave a Z-SCORE of 1.38.
As to `COCC1=C(C(=O)OC(C)OC(=O)OC(C)C)N2C(=O)[C@@H](NC(=O)/C(=N\OC)c3csc(N)n3)[C@H]2SC1` (stereo partly shown) [CEFPODOXIME PROXETIL], the Z-SCORE was 0.53.
The compound `Cl.NC1CCN(c2cccc(Cl)n2)CC1` [SR 57,227A] gave a Z-SCORE of -0.24.
The compound `CC(=O)OCC(CCn1cnc2cnc(N)nc21)COC(C)=O` [FAMCICLOVIR] came in with a Z-SCORE of 1.05.
The same measure, in the same setting: to `CC[N+](C)(CC)CCOC(=O)C(O)(c1ccccc1)C1CCCCC1` (stereo not shown) [OXYPHENONIUM BROMIDE] belongs -0.45; to `CCOC(=O)C1(c2ccccc2)CCN(CCC(C#N)(c2ccccc2)c2ccccc2)CC1` [DIPHENOXYLATE], -0.45.
`c1cnc(N2CCN(Cc3ccc4c(c3)OCO4)CC2)nc1` [Piribedil] returned a Z-SCORE of 1.22.
Turning to `CCc1oc2ccccc2c1C(=O)c1cc(Br)c(O)c(Br)c1`, the Z-SCORE amounted to 0.47.
Same read-out and setting: to `Cc1ccc(-c2nc3ccc(C)cn3c2CC(=O)N(C)C)cc1` [ZOLPIDEM TARTRATE] belongs -0.69.
On the same count and under the same terms, as for `C#CCN(C)[C@H](C)Cc1ccccc1` [Selegiline hydrochloride], the figure is -0.57; as for `Cc1cccc(C)c1NC(=O)C1CCCCN1C` (stereo not shown) [MEPIVACAINE HYDROCHLORIDE], -0.39.
The compound `CC(C(=O)O)c1ccc(CC2CCCC2=O)cc1` (stereo not shown) [LOXOPROFEN SODIUM] displayed a Z-SCORE of 0.32.
Compound `CCCCC1=NC2(CCCC2)C(=O)N1Cc1ccc(-c2ccccc2-c2nnn[nH]2)cc1` [Irbesartan, reference compound] had a Z-SCORE of 4.26.
Turning to `COc1cc(C)c(Cc2cnc(N)nc2N)cc1OC` [ORMETOPRIM], the Z-SCORE was found to be 1.63.
The compound `O=c1[nH]cnc2c1ncn2[C@H]1CC[C@@H](CO)O1` [2',3'-DIDEOXYINOSINE] came in with a Z-SCORE of -0.13.
For the compound `CN(C)CCOC(C)(c1ccccc1)c1ccccn1.O=C(O)CCC(=O)O` (stereo not shown) [Doxylamine succinate salt], the Z-SCORE was 0.36.
Still for that read-out and setting: to `C[N+]1(C)CCC(OC(=O)C(O)(c2ccccc2)C2CCCC2)C1` (stereo not shown) [Glycopyrrolate, reference compound] belongs 0; to `COc1cc(C(=O)NS(=O)(=O)c2ccccc2C)ccc1Cc1cn(C)c2ccc(NC(=O)OC3CCCC3)cc12` [ZAFIRLUKAST], -0.67.

Still in this experiment, the particulars now being: compounds at 10 μM, 24 h; PC12 split TEV assay cells co-cultured with Nrg1-expressing PC12 cells; analysed with cellHTS2.
Regarding `CN(C)c1ccc(O)c2c1C[C@H]1C[C@H]3[C@H](N(C)C)C(O)=C(C(N)=O)C(=O)[C@@]3(O)C(O)=C1C2=O` [MINOCYCLINE HYDROCHLORIDE, reference compound], the Z-SCORE is -0.02.
`CC1(C)O[C@@H]2C[C@H]3[C@@H]4C[C@H](F)C5=CC(=O)C=C[C@]5(C)[C@@]4(F)[C@@H](O)C[C@]3(C)[C@]2(C(=O)CO)O1` [FLUOCINOLONE ACETONIDE, reference compound] gave a Z-SCORE of -0.16.
As for `O=C(O)c1cc(-c2ccc(F)cc2F)ccc1O` [Diflunisal, reference compound], the Z-SCORE is on record as -0.6.
Regarding `OC(CCN1CCCC1)(c1ccccc1)C1CCCCC1` (stereo not shown) [Kemadrin, reference compound], the Z-SCORE was -0.51.
The compound `Cc1nnc(SCC2=C(C(=O)O)N3C(=O)[C@@H](NC(=O)Cn4cnnn4)[C@H]3SC2)s1` [CEFAZOLIN SODIUM SALT, reference compound] yielded a Z-SCORE of -0.74.
Still for that read-out and setting: as for `CCN(CC)CCOc1ccc(C(=C(Cl)c2ccccc2)c2ccccc2)cc1` [Clomid, reference compound], the figure is -1.33; as for `CC1=C(CC(=O)O)c2cc(F)ccc2/C1=C\c1ccc([S+](C)[O-])cc1` (stereo not shown) [Sulindac, reference compound], 1.51.
With `c1ccc2c(c1)CCCC2C1=NCCN1` (stereo not shown) [Tyzine, reference compound], the Z-SCORE turned out to be 0.46.
The same measure, in the same setting: to `Nc1nc(O)c2ncn(COC(CO)CO)c2n1` [Ganciclovir, reference compound] belongs -0.19; to `C[C@H](CS)C(=O)N1CCC[C@H]1C(=O)O` [CAPTOPRIL, reference compound], -0.02.
The compound `CCCN(CCC)S(=O)(=O)c1ccc(C(=O)O)cc1` [Probenecid, reference compound] showed a Z-SCORE of 1.6.
In turn, `c1ccc2[nH]c(-c3cscn3)nc2c1` [THIABENDAZOLE, reference compound] yielded a Z-SCORE of -1.42.
Still for that read-out and setting: to `CC[C@H]1OC(=O)[C@H](C)[C@@H](O[C@H]2C[C@@](C)(OC)[C@@H](O)[C@H](C)O2)[C@H](C)[C@@H](O[C@@H]2O[C@H](C)C[C@H](N(C)C)[C@H]2O)[C@](C)(O)C[C@@H](C)CN(C)[C@H](C)[C@@H](O)[C@]1(C)O` [Azithromycin, reference compound] belongs 0.06; to `CN(C)[C@@H]1C(O)=C(C(N)=O)C(=O)[C@@]2(O)C(O)=C3C(=O)c4c(O)cccc4[C@@](C)(O)[C@H]3C[C@@H]12` [TETRACYCLINE, reference compound], 0.95.
As to `CCc1nc(N)nc(N)c1-c1ccc(Cl)cc1` [Pyrimethamine, reference compound], the Z-SCORE worked out at 0.29.
Same read-out and setting: to `Cc1cccc(Nc2ccccc2C(=O)O)c1C` [Mefenamic Acid, reference compound] belongs 0.34; to `Cc1cnc(C(=O)NCCc2ccc(S(=O)(=O)NC(=O)NC3CCCCC3)cc2)cn1` [GLIPIZIDE, reference compound], 0.73; to `NC(=O)c1ncn([C@@H]2O[C@H](CO)[C@@H](O)[C@H]2O)n1` [Ribavirin, reference compound], 0.53.
Turning to `O=C(N[C@H](CO)[C@H](O)c1ccc([N+](=O)[O-])cc1)C(Cl)Cl` [Chloramphenicol, reference compound], the Z-SCORE came out at 0.74.
As to `C=C(CC)C(=O)c1ccc(OCC(=O)O)c(Cl)c1Cl` [ETHACRYNIC ACID, reference compound], the Z-SCORE is given as -1.25.
Turning to `NNC(=O)c1ccncc1` [Isoniazid, reference compound], the Z-SCORE was -0.38.
On the same count and under the same terms, as for `CCCCC1=NC2(CCCC2)C(=O)N1Cc1ccc(-c2ccccc2-c2nnn[nH]2)cc1` [Irbesartan, reference compound], the figure is 4.26.
Take `CC1=C(/C=C/C(C)=C/C=C/C(C)=C/C(=O)O)C(C)(C)CCC1` [Retinoic acid, reference compound]: the Z-SCORE was found to be 1.72.
On to `COc1cc(Cc2cnc(N)nc2N)cc(OC)c1OC` [Trimethoprim, reference compound], for which the Z-SCORE amounted to 0.28.
On the same count and under the same terms, as for `C[N+]1(C)CCC(OC(=O)C(O)(c2ccccc2)C2CCCC2)C1` (stereo not shown) [Glycopyrrolate, reference compound], the figure is -0.44.

Source of the values: publication PMC5653977 (EMBO Molecular Medicine, 2017).
